Data taken from US8497380B2, “Substituted acetophenones useful as PDE4 inhibitors” (Leo Pharma A/S, priority 2006, dated 2013).

Test system: Human peripheral blood mononuclear cells (PBMC)
Assay: TNFalfa-Release
Format: cell-based
Details: inhibition of TNF-a secretion, PBMC pre-incubated 30 minutes, stimulated 18 hours with lipopolysaccharide
Method: Human peripheral blood mononuclear cells (PBMC) are Isolated from buffy coats. The blood is mixed with saline at a ratio of 1:1, and the PBMC is isolated by the use of Lymphoprep Tubes™ (Nycomed, Norway). The PBMC is suspended in RPMI1640 with 2% foetal calf serum (FCS), pen/strep and 2 mM L-glutamine at a concentration of 5×105 c/ml. The cells are pre-incubated for 30 minutes with the test compounds in 96 well tissue culture plates and stimulated for 18 hours with lipopolysaccharide 1 mg/ml (Sigma). The level of TNF-a is measured in the culture supernatant by enzyme immuno assays using primary and secondary biotinylated antibodies from R&D systems. Results are expressed as pIC50 values calculated from inhibition curves using as positive controls the secretion in LPS stimulated wells and as negative controls the secretion in unstimulated cells.

Structure (SMILES)	IC50
COc1ccc(C(=O)Cc2c(Cl)cncc2Cl)c(OC(F)F)c1OC(F)F [Compound 107, 1-(2,3-Bis-difluoromethoxy-4-methoxy-phenyl)-2-(3,5-dichloro-pyridin-4-yl)-ethanone]	< 1 µM
COc1ccc(C(=O)Cc2c(Cl)cncc2Cl)c(OCC(=O)NC(C)C)c1OC [Compound 209, 2-{6-[2-(3,5-Dichloro-pyridin-4-yl)-acetyl]-2,3-dimethoxy-phenoxy}-N-isopropyl-acetamide]	< 1 µM
COc1ccc(C(=O)Cc2c(Cl)cncc2Cl)c(OCc2ccc(C)cc2)c1OC [Compound 143, 2-(3,5-Dichloro-pyridin-4-yl)-1-[3,4-dimethoxy-2-(4-methyl-benzyloxy)-phenyl]-ethanone]	< 1 µM
COc1ccc(C(=O)Cc2c(Cl)cncc2Cl)c(OCc2csc(C)n2)c1OC [Compound 116, 2-(3,5-Dichloro-pyridin-4-yl)-1-[3,4-dimethoxy-2-(2-methyl-thiazol-4-ylmethoxy)-phenyl]-ethanone]	< 1 µM
COc1ccc(C(=O)Cc2c(Cl)c[n+]([O-])cc2Cl)c(OCCc2ccccc2)c1OC [Compound 271, 2-(3,5-Dichloro-1-oxy-pyridin-4-yl)-1-(3,4-dimethoxy-2-phenethyloxy-phenyl)-ethanone]	< 1 µM
CCCCNC(=O)COc1c(C(=O)Cc2c(Cl)cncc2Cl)ccc(OC)c1OC [Compound 210, N-Butyl-2-{6-[2-(3,5-dichloro-pyridin-4-yl)-acetyl]-2,3-dimethoxy-phenoxy}-acetamide]	< 1 µM
COc1ccc(C(=O)Cc2c(Cl)cncc2Cl)c(OCC(=O)OCc2ccccc2)c1OC [Compound 132, {6-[2-(3,5-Dichloro-pyridin-4-yl)-acetyl]-2,3-dimethoxy-phenoxy}-acetic acid benzyl ester]	< 1 µM
COc1ccc(C(=O)Cc2c(Cl)cncc2Cl)c(OCCc2ccccn2)c1OC [Compound 279, 2-(3,5-Dichloro-pyridin-4-yl)-1-[3,4-dimethoxy-2-(2-pyridin-2-yl-ethoxy)-phenyl]-ethanone]	< 1 µM
COc1ccc(C(=O)Cc2c(Cl)cncc2Cl)c(OCc2cccc(C#N)c2)c1OC [Compound 152, 3-{6-[2-(3,5-Dichloro-pyridin-4-yl)-acetyl]-2,3-dimethoxy-phenoxymethyl}-benzonitrile]	< 1 µM
COc1ccc(C(=O)Cc2c(Cl)cncc2Cl)c(OCc2nnc(C3CC3)s2)c1OC [Compound 117]	< 1 µM
COc1ccc(C(=O)Cc2c(Cl)cncc2Cl)c(OCC(=O)NCCc2cccnc2)c1OC [Compound 249, 2-{6-[2-(3,5-Dichloro-pyridin-4-yl)-acetyl]-2,3-dimethoxy-phenoxy}-14-(2-pyridin-3-yl-ethyl)-acetamide]	< 1 µM
C=CCOc1c(OC)ccc(C(=O)Cc2c(Cl)cncc2Cl)c1OCc1ccccc1C#N [Compound 267, 2-{2-Allyloxy-6-[2-(3,5-dichloro-pyridin-4-yl)-acetyl]-3-methoxy-phenoxymethyl}-benzonitrile]	< 1 µM
COc1ccc(C(=O)Cc2c(Cl)cncc2Cl)c(OCC(=O)NCCOCCO)c1OC [Compound 258, 2-{6-[2-(3,5-Dichloro-pyridin-4-yl)-acetyl]-2,3-dimethoxy-phenoxy}-N-[2-(2-hydroxy-ethoxy)-ethyl]-acetamide]	< 1 µM
COc1ccc(C(=O)Cc2c(Cl)cncc2Cl)c(OCc2cccc(OC(F)(F)F)c2)c1OC [Compound 163, 2-(3,5-Dichloro-pyridin-4-yl)-1-[3,4-dimethoxy-2-(3-trifluoromethoxy-benzyloxy)-phenyl]-ethanone]	< 1 µM
COc1ccc(C(=O)Cc2c(Cl)cncc2Cl)c(OCC(=O)NC[C@@H](O)c2ccccc2)c1OC [Compound 253, (S)-2-{6-[2-(3,5-Dichloro-pyridin-4-yl)-acetyl]-2,3-dimethoxy-phenoxy}-N-(2-hydroxy-2-phenyl-ethyl)-acetamide]	< 1 µM
COc1ccc(C(=O)Cc2c(Cl)cncc2Cl)c(OCCc2ccncc2)c1OC [Compound 277, 2-(3,5-Dichloro-pyridin-4-yl)-1-[3,4-dimethoxy-2-(2-pyridin-4-yl-ethoxy)-phenyl]-ethanone]	< 1 µM
C=CCCOc1c(C(=O)Cc2c(Cl)cncc2Cl)ccc(OC)c1OC [Compound 137, 1-(2-But-3-enyloxy-3,4-dimethoxy-phenyl)-2-(3,5-dichloro-pyridin-4-yl)-ethanone]	< 1 µM
COc1ccc(C(=O)Cc2c(Cl)cncc2Cl)c(OCC(=O)NC2c3ccccc3C[C@H]2O)c1OC (stereo partly drawn) [Compound 256, (2R)-2-{6-[2-(3,5-Dichloro-pyridin-4-yl)-acetyl]-2,3-dimethoxy-phenoxy}-N-(2-hydroxy-indan-1-yl)-acetamide]	< 1 µM
COc1ccc(C(=O)Cc2c(Cl)cncc2Cl)c(OCc2ncon2)c1OC [Compound 118, 2-(3,5-Dichloro-pyridin-4-yl)-1-[3,4-dimethoxy-2-([1,2,4]oxadiazol-3-ylmethoxy)-phenyl]-ethanone]	< 1 µM

Structure (SMILES)	IC50
COc1ccc(C(=O)Cc2c(Cl)cncc2Cl)c(OCC(=O)NCc2cccc(F)c2)c1OC [Compound 238, 2-{6-[2-(3,5-Dichloro-pyridin-4-yl)-acetyl]-2,3-dimethoxy-phenoxy}-N-(3-fluoro-benzyl)-acetamide]	< 1 µM
COc1ccc(C(=O)Cc2c(Cl)cncc2Cl)c(OCC=C(C)C)c1OC [Compound 111, 2-(3,5-Dichloro-pyridin-4-yl)-1-[3,4-dimethoxy-2-(3-methyl-but-2-enyloxy)-phenyl]-ethanone]	< 1 µM
COc1ccc(C(=O)Cc2c(Cl)cncc2Cl)c(OCC(=O)NCCC(C)C)c1OC [Compound 212, 2-{6-[2-(3,5-Dichloro-pyridin-4-yl)-acetyl]-2,3-dimethoxy-phenoxy}-N-(3-methyl-butyl)-acetamide]	< 1 µM
COc1ccc(C(=O)Cc2c(Cl)cncc2Cl)c(OCC(=O)NCc2cccs2)c1OC [Compound 254, 2-{6-[2-(3,5-Dichloro-pyridin-4-yl)-acetyl]-2,3-dimethoxy-phenoxy}-N-thiophen-2-ylmethyl-acetamide]	< 1 µM
COc1cccc(COc2c(C(=O)Cc3c(Cl)cncc3Cl)ccc(OC)c2OC)c1 [Compound 177, 2-(3,5-Dichloro-pyridin-4-yl)-1-[3,4-dimethoxy-2-(3-methoxy-benzyloxy)-phenyl]-ethanone]	< 1 µM
COc1ccc(C(=O)Cc2c(Cl)cncc2Cl)c(OCC(=O)NCCOc2ccccc2)c1OC [Compound 231, 2-{6-[2-(3,5-Dichloro-pyridin-4-yl)-acetyl]-2,3-dimethoxy-phenoxy}-N-(2-phenoxy-ethyl)-acetamide]	< 1 µM
COc1ccc(C(=O)Cc2c(Cl)cncc2Cl)c(OCC(=O)NCc2ccc(C)cc2)c1OC [Compound 240, 2-{6-[2-(3,5-Dichloro-pyridin-4-yl)-acetyl]-2,3-dimethoxy-phenoxy}-N-(4-methyl-benzyl)-acetamide]	< 1 µM
COc1ccc(C(=O)Cc2c(Cl)cncc2Cl)c(OCCc2ccc(C#N)cc2)c1OC [Compound 278, 4-(2-{6-[2-(3,5-Dichloro-pyridin-4-yl)-acetyl]-2,3-dimethoxy-phenoxy}-ethyl)-benzonitrile]	< 1 µM
COc1ccc(C(=O)Cc2c(Cl)cncc2Cl)c(OCC(=O)O)c1OC [Compound 504, {6-[2-(3,5-Dichloro-pyridin-4-yl)-acetyl]-2,3-dimethoxy-phenoxy}-acetic acid]	< 1 µM
COc1ccc(C(=O)Cc2c(Cl)cncc2Cl)c(OCCc2ccc([S+](C)[O-])cc2)c1OC (stereo not shown) [Compound 281, 2-(3,5-Dichloro-pyridin-4-yl)-1-{2-[2-(4-methanesulfinyl-phenyl)-ethoxy]-3,4-dimethoxy-phenyl}-ethanone]	< 1 µM
COc1ccc(C(=O)Cc2c(Cl)cncc2Cl)c(OCCc2ccccc2)c1OC [Compound 112, 2-(3,5-Dichloro-pyridin-4-yl)-1-(3,4-dimethoxy-2-phenethyloxy-phenyl)-ethanone]	< 1 µM
COc1ccc(C(=O)Cc2c(Cl)cncc2Cl)c(OCC(=O)NCc2cccc(C)c2)c1OC [Compound 239, 2-{6-[2-(3,5-Dichloro-pyridin-4-yl)-acetyl]-2,3-dimethoxy-phenoxy}-N-(3-methyl-benzyl)-acetamide]	< 1 µM
COc1ccc(C(=O)Cc2c(Cl)cncc2Cl)c(OCC(=O)NCc2cccc(Cl)c2)c1OC [Compound 246, N-(3-Chloro-benzyl)-2-{6-(2-(3,5-dichloro-pyridin-4-yl)-acetyl)-2,3-dimethoxy-phenoxy}-acetamide]	< 1 µM
COCCNC(=O)COc1c(C(=O)Cc2c(Cl)cncc2Cl)ccc(OC)c1OC [Compound 223, 2-{6-(2-(3,5-Dichloro-pyridin-4-yl)-acetyl)-2,3-dimethoxy-phenoxy}-N-(2-methoxy-ethyl)-acetamide]	< 1 µM
COc1ccc(C(=O)Cc2c(Cl)cncc2Cl)c(OCC(=O)NCc2cc(F)cc(F)c2)c1OC [Compound 234, 2-{6-[2-(3,5-Dichloro-pyridin-4-yl)-acetyl]-2,3-dimethoxy-phenoxy}-N-(3,5-difluoro-benzyl)-acetamide]	< 1 µM
COc1ccc(C(=O)Cc2c(Cl)cncc2Cl)c(OCc2ccc(Cl)s2)c1OC [Compound 121, 1-[2-(5-Chloro-thiophen-2-ylmethoxy)-3,4-dimethoxy-phenyl]-2-(3,5-dichloro-pyridin-4-yl)-ethanone]	< 1 µM
COc1ccc(C(=O)Cc2c(Cl)cncc2Cl)c(OCc2ccccc2F)c1OC [Compound 161, 2-(3,5-Dichloro-pyridin-4-yl)-1-[2-(2-fluoro-benzyloxy)-3,4-dimethoxy-phenyl]-ethanone]	< 1 µM
COc1ccc(C(=O)Cc2c(Cl)cncc2Cl)c(OCc2ccccc2Cl)c1OC [Compound 176, 1-[2-(2-Chloro-benzyloxy)-3,4-dimethoxy-phenyl]-2-(3,5-dichloro-pyridin-4-yl)-ethanone]	< 1 µM
